ChEMBL document CHEMBL1212797, “Miltefosine efficiently eliminates Leishmania major amastigotes from infected murine dendritic cells without altering their immune functions” (Antimicrob Agents Chemother, 2010)
The source made the active and inactive calls. The rule behind the calls is not given here.

Legend:
[1] = Induction of apoptosis in C57BL/6 mouse dendritic cells assessed as early apoptotic cells at 5 uM after 72 hrs using annexin V-propidium iodide and annexin V staining by flow cytometry; format: cell-based
dendritic [2] = test: Immunomodulatory effect in Leishmania major infected C57BL/6 mouse dendritic cells assessed as IL-10 production after 18 hrs by ELISA; format: functional, cell-based
[3] = Induction of apoptosis in C57BL/6 mouse dendritic cells assessed as necrotic cells at 25 uM after 72 hrs using annexin V-propidium iodide and annexin V staining by flow cytometry; format: cell-based
[4] = Induction of apoptosis in C57BL/6 mouse dendritic cells assessed as viable cells at 5 uM after 72 hrs using annexin V-propidium iodide and annexin V staining by flow cytometry; format: cell-based; settings: read-out: Activity
[5] = Induction of apoptosis in C57BL/6 mouse dendritic cells assessed as late apoptotic cells at 5 uM after 18 hrs using annexin V-propidium iodide and annexin V staining by flow cytometry; format: cell-based
dendritic [6] = test: Induction of nitric oxide release in Leishmania major amastigotes infected C57BL/6 mouse dendritic cells assessed as nitrite production after 72 hrs; format: functional, cell-based
[7] = Induction of apoptosis in C57BL/6 mouse dendritic cells assessed as viable cells at 5 uM after 18 hrs using annexin V-propidium iodide and annexin V staining by flow cytometry; format: cell-based; settings: read-out: Activity
[8] = Induction of apoptosis in C57BL/6 mouse dendritic cells assessed as necrotic cells at 5 uM after 18 hrs using annexin V-propidium iodide and annexin V staining by flow cytometry; format: cell-based
[9] = Induction of apoptosis in C57BL/6 mouse dendritic cells assessed as necrotic cells at 50 uM after 72 hrs using annexin V-propidium iodide and annexin V staining by flow cytometry; format: cell-based
dendritic [10] = test: Immunomodulatory effect in Leishmania major infected C57BL/6 mouse dendritic cells assessed as IL-12p70 production after 18 hrs by ELISA; format: functional, cell-based
dendritic [11] = test: Immunomodulatory effect in Leishmania major uninfected C57BL/6 mouse bone marrow dendritic cells assessed as CD86 expression at 5 to 50 uM after 18 hrs by flow cytometry; format: functional, cell-based
dendritic [12] = test: Immunomodulatory effect in Leishmania major uninfected C57BL/6 mouse bone marrow dendritic cells assessed as expression of MHC-2 at 5 to 50 uM after 18 hrs by flow cytometry; format: functional, cell-based
[13] = Cytotoxicity against C57BL/6 mouse immature bone marrow-derived dendritic cells at 5 uM after 72 to 96 hrs by propidium iodide exclusion staining based flow cytometry; format: cell-based
[14] = Induction of apoptosis in C57BL/6 mouse dendritic cells assessed as viable cells at 50 uM after 72 hrs using annexin V-propidium iodide and annexin V staining by flow cytometry; format: cell-based; settings: read-out: Activity
dendritic [15] = test: Immunomodulatory effect in Leishmania major uninfected C57BL/6 mouse bone marrow dendritic cells assessed as CD40 expression at 5 to 50 uM after 18 hrs by flow cytometry; format: functional, cell-based
dendritic [16] = test: Immunomodulatory effect in Leishmania major infected C57BL/6 mouse dendritic cells assessed as IL-12p40 production after 18 hrs by ELISA; format: functional, cell-based
dendritic [17] = test: Immunomodulatory effect in Leishmania major Leishmania major infected sC57BL/6 mouse bone marrow dendritic cells assessed as CD54 expression at 5 to 50 uM after 18 hrs by flow cytometry; format: functional, cell-based; settings: C57BL/6
dendritic [18] = test: Immunomodulatory effect in Leishmania major Leishmania major infected sC57BL/6 mouse bone marrow dendritic cells assessed as CD86 expression at 5 to 50 uM after 18 hrs by flow cytometry; format: functional, cell-based; settings: C57BL/6
[19] = Induction of apoptosis in C57BL/6 mouse dendritic cells assessed as late apoptotic cells at 25 uM after 72 hrs using annexin V-propidium iodide and annexin V staining by flow cytometry; format: cell-based
dendritic [20] = test: Immunomodulatory effect in Leishmania major Leishmania major infected sC57BL/6 mouse bone marrow dendritic cells assessed as MHC-2 expression at 5 to 50 uM after 18 hrs by flow cytometry; format: functional, cell-based; settings: C57BL/6
dendritic [21] = test: Immunomodulatory effect in Leishmania major uninfected C57BL/6 mouse bone marrow dendritic cells assessed as CD54 expression at 5 to 50 uM after 18 hrs by flow cytometry; format: functional, cell-based
dendritic [22] = test: Immunomodulatory effect in uninfected C57BL/6 mouse dendritic cells assessed as TNF-alpha production after 18 hrs by ELISA; format: functional, cell-based
[23] = Induction of apoptosis in C57BL/6 mouse dendritic cells assessed as late apoptotic cells at 25 uM after 18 hrs using annexin V-propidium iodide and annexin V staining by flow cytometry; format: cell-based
[24] = Induction of apoptosis in C57BL/6 mouse dendritic cell assessed as early apoptotic cells at 50uM after 18 hrs using annexin V-propidium iodide staining by flow cytometry; format: cell-based
dendritic [25] = test: Effect on antigen specific CD4+ T cells expansion by Leishmania major amastigotes infected C57BL/6 mouse dendritic cells assessed as increase in [3H]thymidine incorporation at 50 uM after 72 hrs; format: functional, cell-based
[26] = Induction of apoptosis in C57BL/6 mouse dendritic cells assessed as early apoptotic cells at 5 uM after 18 hrs using annexin V-propidium iodide and annexin V staining by flow cytometry; format: cell-based
[27] = Induction of apoptosis in C57BL/6 mouse dendritic cells assessed as viable cells at 50 uM after 18 hrs using annexin V-propidium iodide and annexin V staining by flow cytometry; format: cell-based; settings: read-out: Activity
[28] = Induction of apoptosis in C57BL/6 mouse dendritic cells assessed as necrotic cells at 25 uM after 18 hrs using annexin V-propidium iodide and annexin V staining by flow cytometry; format: cell-based
[29] = Induction of apoptosis in C57BL/6 mouse dendritic cells assessed as early apoptotic cells at 25 uM after 18 hrs using annexin V-propidium iodide and annexin V staining by flow cytometry; format: cell-based
Homo sapiens = organism: Homo sapiens; test: Plasma concentration in leishmaniasis patient during last week of 4-week treatment course; format: ADME, organism-based; settings: in vivo
[30] = Induction of apoptosis in C57BL/6 mouse dendritic cells assessed as late apoptotic cells at 50 uM after 72 hrs using annexin V-propidium iodide and annexin V staining by flow cytometry; format: cell-based
Mus musculus [31] = test: Immunomodulatory effect in Leishmania major infected C57BL/6 mouse assessed as levels of CD11c+ and MHC-2+ in dendritic cells at 20 ug administered topically measured after 48 hrs by FACS method; format: functional, organism-based
dendritic [32] = test: Immunomodulatory effect in Leishmania major infected C57BL/6 mouse dendritic cells assessed as TNF-alpha production after 18 hrs by ELISA; format: functional, cell-based
[33] = Induction of apoptosis in C57BL/6 mouse dendritic cells assessed as […] viable cells at 25 uM after 18 hrs using annexin V-propidium iodide and annexin V staining by flow cytometry; format: cell-based; settings: read-out: Activity
dendritic [34] = test: Immunomodulatory effect in uninfected C57BL/6 mouse dendritic cells assessed as IL-12p70 production after 18 hrs by ELISA; format: functional, cell-based
[35] = Induction of apoptosis in C57BL/6 mouse dendritic cells assessed as viable cells at 25 uM after 72 hrs using annexin V-propidium iodide and annexin V staining by flow cytometry; format: cell-based; settings: read-out: Activity
[36] = Induction of apoptosis in C57BL/6 mouse dendritic cells assessed as necrotic cells at 50 uM after 18 hrs using annexin V-propidium iodide and annexin V staining by flow cytometry; format: cell-based
[37] = Induction of apoptosis in C57BL/6 mouse dendritic cells assessed as early apoptotic cells at 50 uM after 72 hrs using annexin V-propidium iodide and annexin V staining by flow cytometry; format: cell-based
dendritic [38] = test: Immunomodulatory effect in uninfected C57BL/6 mouse dendritic cells assessed as IL-12p40 production after 18 hrs by ELISA; format: functional, cell-based
[39] = Induction of apoptosis in C57BL/6 mouse dendritic cells assessed as late apoptotic cells at 50 uM after 18 hrs using annexin V-propidium iodide and annexin V staining by flow cytometry; format: cell-based
dendritic [40] = test: Immunomodulatory effect in Leishmania major Leishmania major infected sC57BL/6 mouse bone marrow dendritic cells assessed as CD40 expression at 5 to 50 uM after 18 hrs by flow cytometry; format: functional, cell-based; settings: C57BL/6
[41] = Induction of apoptosis in C57BL/6 mouse dendritic cells assessed as early apoptotic cells at 50 uM after 18 hrs using annexin V-propidium iodide and annexin V staining by flow cytometry; format: cell-based
[42] = Induction of apoptosis in C57BL/6 mouse dendritic cells assessed as late apoptotic cells at 5 uM after 72 hrs using annexin V-propidium iodide and annexin V staining by flow cytometry; format: cell-based
dendritic [43] = test: Effect on antigen specific CD8+ T cells expansion by Leishmania major amastigotes infected C57BL/6 mouse dendritic cells assessed as increase in [3H]thymidine incorporation at 50 uM after 72 hrs; format: functional, cell-based
Mus musculus [44] = test: Immunomodulatory effect in Leishmania major infected C57BL/6 mouse assessed as levels of CD11c+ and MHC-2+ in dendritic cells at 200 ug administered topically measured after 48 hrs by FACS method; format: functional, organism-based
dendritic [45] = test: Immunomodulatory effect in uninfected C57BL/6 mouse dendritic cells assessed as IL-10 production after 18 hrs by ELISA; format: functional, cell-based
[46] = Cytotoxicity against C57BL/6 mouse immature bone marrow-derived dendritic cells assessed as reduction of cell survival at >100 uM after 48 hrs by propidium iodide exclusion staining based flow cytometry
Leishmania major = test: Antileishmenia activity against Leishmania major amastigotes infected in C57BL/6 mouse dendritic cells assessed as decrease in intracellular parasite amastigotes level at 50 uM by light microscopy; format: functional, organism-based
[47] = Induction of apoptosis in C57BL/6 mouse dendritic cells assessed as necrotic cells at 5 uM after 72 hrs using annexin V-propidium iodide and annexin V staining by flow cytometry; format: cell-based

Question: With `CCCCCCCCCCCCCCCCOP(=O)([O-])OCC[N+](C)(C)C` [MILTEFOSINE] as the compound, how does the Activity [1] read?
Answer: 23.15%

Question: What about the Activity (dendritic [2]) of the same compound?
Answer: inactive

Question: What about the Activity [3] of the same compound?
Answer: 6.2%

Question: What about the viability at 72 h, 5 µM [4] of the same compound?
Answer: 36%

Question: And the Activity [5]?
Answer: 11.41%

Question: And the Activity (dendritic [6])?
Answer: inactive

Question: What about the viability at 18 h, 5 µM [7] of the same compound?
Answer: 84%

Question: What about the Activity [8] of the same compound?
Answer: 3.91%

Question: And the Activity [9]?
Answer: 6.56%

Question: And the Activity (dendritic [10])?
Answer: inactive

Question: What about the Activity (dendritic [11]) of the same compound?
Answer: inactive

Question: And the Activity (dendritic [12])?
Answer: inactive

Question: And the Activity [13]?
Answer: Active

Question: What about the viability at 72 h, 50 µM [14] of the same compound?
Answer: 17.7%

Question: What about the Activity (dendritic [15]) of the same compound?
Answer: inactive

Question: What about the Activity (dendritic [16]) of the same compound?
Answer: inactive

Question: What about the Activity (dendritic [17]) of the same compound?
Answer: inactive

Question: And the Activity (dendritic [18])?
Answer: inactive

Question: What about the Activity [19] of the same compound?
Answer: 22.72%

Question: What about the Activity (dendritic [20]) of the same compound?
Answer: inactive

Question: What about the Activity (dendritic [21]) of the same compound?
Answer: inactive

Question: And the Activity (dendritic [22])?
Answer: inactive

Question: And the Activity [23]?
Answer: 15.89%

Question: And the Activity [24]?
Answer: 43.18%

Question: What about the Activity (dendritic [25]) of the same compound?
Answer: inactive

Question: And the Activity [26]?
Answer: 20.7%

Question: What about the viability at 18 h, 50 µM [27] of the same compound?
Answer: 51.7%

Question: What about the Activity [28] of the same compound?
Answer: 5.83%

Question: And the Activity [29]?
Answer: 19.91%

Question: And the Cp (Homo sapiens)?
Answer: 30800 ng/mL

Question: What about the Activity [30] of the same compound?
Answer: 54.56%

Question: And the Activity (Mus musculus [31])?
Answer: inactive

Question: And the Activity (dendritic [32])?
Answer: inactive

Question: And the viability at 18 h, 25 µM [33]?
Answer: 58.4%

Question: And the Activity (dendritic [34])?
Answer: inactive

Question: And the viability at 72 h, 25 µM [35]?
Answer: 28.9%

Question: What about the Activity [36] of the same compound?
Answer: 6.6%

Question: And the Activity [37]?
Answer: 21.16%

Question: And the Activity (dendritic [38])?
Answer: inactive

Question: What about the Activity [39] of the same compound?
Answer: 18.57%

Question: And the Activity (dendritic [40])?
Answer: inactive

Question: And the Activity [41]?
Answer: 23.15%

Question: And the Activity [42]?
Answer: 35.67%

Question: What about the Activity (dendritic [43]) of the same compound?
Answer: inactive

Question: And the Activity (Mus musculus [44])?
Answer: inactive

Question: What about the Activity (dendritic [45]) of the same compound?
Answer: inactive

Question: And the Activity [46]?
Answer: Toxic

Question: And the inhibition (Leishmania major)?
Answer: Dose-dependent effect

Question: What about the Activity [47] of the same compound?
Answer: 5.16%
